What was measured:
[1] = target: T1, endogenous A2BR in human monocyte‐derived M2‐like macrophages (Homo sapiens, UniProt P29275); test: Flow cytometry of PSB603‐BY630 binding to M2‐like macrophages; type: cell-based; conditions: 100 nM PSB603‐BY630, 10 μM unlabelled PSB603, six donors, p <.01 paired t‐test
T1 construct: monitor endogenous A2BR expression on human macrophages; endogenous in cells; host or cells: M1-like (GMCSF) and M2-like (MCSF) macrophages differentiated from CD14+ monocytes of healthy human donors
T1 sequence (P29275 1-332): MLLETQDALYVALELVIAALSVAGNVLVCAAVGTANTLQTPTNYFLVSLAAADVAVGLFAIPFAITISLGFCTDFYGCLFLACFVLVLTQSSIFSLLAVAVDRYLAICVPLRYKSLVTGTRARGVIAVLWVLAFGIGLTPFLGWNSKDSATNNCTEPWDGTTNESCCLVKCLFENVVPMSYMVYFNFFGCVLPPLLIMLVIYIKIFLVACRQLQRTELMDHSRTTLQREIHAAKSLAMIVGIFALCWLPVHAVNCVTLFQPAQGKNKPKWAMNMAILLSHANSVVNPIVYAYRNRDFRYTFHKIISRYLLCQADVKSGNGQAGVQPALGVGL
Description: (§1) One hundred and fifty milliliter peripheral blood was obtained in heparinised 60 mL syringes by venepuncture from healthy volunteers after written informed consent (Ethics from University of Nottingham Ethics committee, ref 161–1711). Peripheral blood mononuclear cells (PBMC) were immediately separated by density centrifugation over Lymphoprep (Stemcell, UK) at 800g for 25 min on low brake followed by washes in endotoxin‐free phosphate‐buffered saline (PBS, Sigma). PBMC were washed in MACS buffer (PBS + 1% fetal calf serum (FCS, Sigma) + […] (Sigma)) then incubated with CD14 microbeads (Miltenyi Biotech) and monocytes isolated by magnetic separation on an AutoMACS Pro cell separator (Miltenyi). Cell purity was routinely assessed by flow cytometry (>95%). […]
(§2) Harvested macrophages were resuspended in staining buffer (HBSS [Sigma] supplemented with 2.5% v/v FCS and Ethylenediaminetetraacetic acid‐ EDTA 5 mM) at 2 × 10^6 cells/mL. […] BODIPY 630/650 fluorescence was measured on a MACSQuant 10 Flow Cytometer (Miltenyi) immediately after incubation (>5 × 10^4 events acquired). Flow cytometry data were analyzed using FlowJo software v10. […]

[2] = target: T2, NLuc‐A2BR (Homo sapiens, UniProt P29275); test: NanoBRET competition binding against 50 nM PSB603‐BY630 in HEK293G cells expressing NLuc‐A2BR
T2 construct: expressed in transfected cells
T2 sequence (P29275 1-332): T1 sequence (P29275 1-332)
Description: Saturation and competition binding assays were performed as previously described.[36] Briefly, cells were seeded in 96‐well white clear‐bottomed Greiner plates pre‐treated with 10 μg/mL poly‐D‐lysine (Sigma‐Aldrich, Missouri USA) at a density of 30 000–35 000 cells per well in DMEM supplemented with 10% FBS. […] The NanoLuc substrate, furimazine (Promega Corporation, Wisconsin, USA), was then added to each well (1:400 dilution) and the plate was incubated for 10 min in the dark at 37°C. The resulting bioluminescence resonance energy transfer (BRET) was measured using a PHERAstar FS plate reader (BMG Labtech) at 37°C. For each well, filtered light emissions at 460 nm (80 nm bandpass) and >610 nm (longpass) for the BODIPY630/650 ligand were simultaneously measured. BRET ratios were calculated by dividing the 610 nm emission by the 460 nm emission. All conditions were performed in 2–6 replicates within each plate. For kinetic experiments, cells were preincubated for 10 min with 1:400 dilution of furimazine prior to addition of 200 nM PSB603‐BY630 and BRET ratios determined every 0.5 min.
The IC 50 values were then used to calculate the K i values using the Cheng‐Prussoff equation: Ki=IC50/1+L/KD where [L] is the concentration of PSB603‐BY630 in nM, and K D is the dissociation constant of that fluorescent ligand in nM.

[3] = tested on: A2BR; parameters: method as in PMID 29106905, PMID 19569717; conditions: cited from earlier work
[4] = target: T3, endogenous A2BR in human monocyte‐derived M1‐like macrophages (Homo sapiens, UniProt P29275); test: Flow cytometry of PSB603‐BY630 binding to M1‐like macrophages; type: cell-based; conditions: 100 nM PSB603‐BY630, 10 μM unlabelled PSB603, six donors, p <.01 paired t‐test
T3 construct: monitor endogenous A2BR expression on human macrophages; endogenous in cells; host or cells: M1-like (GMCSF) and M2-like (MCSF) macrophages differentiated from CD14+ monocytes of healthy human donors
T3 sequence (P29275 1-332): T1 sequence (P29275 1-332)
Description: as §1, §2

**Q.** Which results are given for `CCCn1c(=O)[nH]c2nc(-c3ccc(S(=O)(=O)N4CCN(c5ccc(Cl)cc5)CC4)cc3)[nH]c2c1=O` [PSB603, 8‐[4‐[4‐(4‐Chlorophenzyl)piperazide‐1‐sulfonylphenyl]]‐1‐propylxanthine]?
**A.** inhibition of PSB603‐BY630 binding (median fluorescence intensity) [1]: significant inhibiton; Appararent Log K i [2]: −9.12 ± 0.08; Log IC50 [2]: −8.55 ± 0.08; affinity for A2BR [3]: sub‐nanomolar; inhibition of PSB603‐BY630 binding (median fluorescence intensity) [4]: significant inhibiton

Source: PMC11191602, “A novel and selective fluorescent ligand for the study of adenosine A2B receptors” (Pharmacology Research & Perspectives, 2024)
